Results: US12702691B2, “Extract of an herbal composition as antimicrobial and/or antibiofilm agent” (ALPHANOSOS S.A.S., priority 2016, dated 2026)

Assays:
[1] = system: B-A17; test: Planktonic growth with extract and antibiotic relative to growth without both (Example 14); assay type: cell-based
Method: (§1) Starting from the herbal composition, the corresponding water extracts (or processed samples) was prepared according to the previously described Method B using 2.06 g of the above herbal composition with 40 mL water with 100 g/L sucrose for water extraction and including the decantation step before filtration. In an independent water extract preparation without sucrose, it has been measured that 2.06 g/40 mL of herbal composition corresponds to 14.5 g/L as deduced from the weight of the lyophilized dry herbal extract.
(§2) In Example 14 we calculate the growth of the bacteria in presence of antibiotic and/or herbal mix relative to the growth in the absence of both antibiotic and herbal mix extract.

[2] = system: B-A21; test: as above; assay type: cell-based
Method: as §1, §2

[3] = M[20C]-576 0 μg/mL, antibiotic 3.91 μg/mL
[4] = M[20C]-576 0 μg/mL, antibiotic 7.81 μg/mL
[5] = M[20C]-576 0 μg/mL, antibiotic 15.63 μg/mL
[6] = M[20C]-576 0 μg/mL, antibiotic 31.25 μg/mL
[7] = M[20C]-576 0 μg/mL, antibiotic 62.50 μg/mL
[8] = M[20C]-576 0 μg/mL, antibiotic 125 μg/mL
[9] = M[20C]-576 0 μg/mL, antibiotic 250 μg/mL
[10] = M[20C]-576 0 μg/mL, antibiotic 500 μg/mL
[11] = M[20C]-576 0 μg/mL, antibiotic 1000 μg/mL
[12] = M[20C]-576 0 μg/mL, antibiotic 2000 μg/mL
[13] = M[20C]-576 0 μg/mL, antibiotic 4000 μg/mL
[14] = M[20C]-576 90.6 μg/mL, antibiotic 3.91 μg/mL
[15] = M[20C]-576 90.6 μg/mL, antibiotic 7.81 μg/mL
[16] = M[20C]-576 90.6 μg/mL, antibiotic 15.63 μg/mL
[17] = M[20C]-576 90.6 μg/mL, antibiotic 31.25 μg/mL
[18] = M[20C]-576 90.6 μg/mL, antibiotic 62.50 μg/mL
[19] = M[20C]-576 90.6 μg/mL, antibiotic 125 μg/mL
[20] = M[20C]-576 90.6 μg/mL, antibiotic 250 μg/mL
[21] = M[20C]-576 90.6 μg/mL, antibiotic 500 μg/mL
[22] = M[20C]-576 90.6 μg/mL, antibiotic 1000 μg/mL
[23] = M[20C]-576 90.6 μg/mL, antibiotic 2000 μg/mL
[24] = M[20C]-576 90.6 μg/mL, antibiotic 4000 μg/mL
[25] = M[20C]-576 181.3 μg/mL, antibiotic 3.91 μg/mL
[26] = M[20C]-576 181.3 μg/mL, antibiotic 7.81 μg/mL
[27] = M[20C]-576 181.3 μg/mL, antibiotic 15.63 μg/mL
[28] = M[20C]-576 181.3 μg/mL, antibiotic 31.25 μg/mL
[29] = M[20C]-576 181.3 μg/mL, antibiotic 62.50 μg/mL
[30] = M[20C]-576 181.3 μg/mL, antibiotic 125 μg/mL
[31] = M[20C]-576 181.3 μg/mL, antibiotic 250 μg/mL
[32] = M[20C]-576 181.3 μg/mL, antibiotic 500 μg/mL
[33] = M[20C]-576 181.3 μg/mL, antibiotic 1000 μg/mL
[34] = M[20C]-576 181.3 μg/mL, antibiotic 2000 μg/mL
[35] = M[20C]-576 181.3 μg/mL, antibiotic 4000 μg/mL

CC1(C)S[C@@H]2[C@H](NC(=O)[C@H](N)c3ccccc3)C(=O)N2[C@H]1C(=O)O [Ampicillin]
planktonic growth relative to the growth in the absence of both extract and antibiotic [1, 3]: 176% | planktonic growth relative to the growth in the absence of both extract and antibiotic [1, 4]: 176% | planktonic growth relative to the growth in the absence of both extract and antibiotic [1, 5]: 148% | planktonic growth relative to the growth in the absence of both extract and antibiotic [1, 6]: 131% | planktonic growth relative to the growth in the absence of both extract and antibiotic [1, 7]: 112% | planktonic growth relative to the growth in the absence of both extract and antibiotic [1, 8]: 2% | planktonic growth relative to the growth in the absence of both extract and antibiotic [1, 9]: 0% | planktonic growth relative to the growth in the absence of both extract and antibiotic [1, 10]: 0% | planktonic growth relative to the growth in the absence of both extract and antibiotic [1, 11]: 0% | planktonic growth relative to the growth in the absence of both extract and antibiotic [1, 12]: 0% | planktonic growth relative to the growth in the absence of both extract and antibiotic [1, 13]: −1% | planktonic growth relative to the growth in the absence of both extract and antibiotic [1, 14]: 64% | planktonic growth relative to the growth in the absence of both extract and antibiotic [1, 15]: 76% | planktonic growth relative to the growth in the absence of both extract and antibiotic [1, 16]: 75% | planktonic growth relative to the growth in the absence of both extract and antibiotic [1, 17]: 58% | planktonic growth relative to the growth in the absence of both extract and antibiotic [1, 18]: 18% | planktonic growth relative to the growth in the absence of both extract and antibiotic [1, 19]: 1% | planktonic growth relative to the growth in the absence of both extract and antibiotic [1, 20]: 0% | planktonic growth relative to the growth in the absence of both extract and antibiotic [1, 21]: 0% | planktonic growth relative to the growth in the absence of both extract and antibiotic [1, 22]: 0% | planktonic growth relative to the growth in the absence of both extract and antibiotic [1, 23]: 0% | planktonic growth relative to the growth in the absence of both extract and antibiotic [1, 24]: 0% | planktonic growth relative to the growth in the absence of both extract and antibiotic [1, 25]: 52% | planktonic growth relative to the growth in the absence of both extract and antibiotic [1, 26]: 53% | planktonic growth relative to the growth in the absence of both extract and antibiotic [1, 27]: 52% | planktonic growth relative to the growth in the absence of both extract and antibiotic [1, 28]: 31% | planktonic growth relative to the growth in the absence of both extract and antibiotic [1, 29]: 7% | planktonic growth relative to the growth in the absence of both extract and antibiotic [1, 30]: −4% | planktonic growth relative to the growth in the absence of both extract and antibiotic [1, 31]: −4% | planktonic growth relative to the growth in the absence of both extract and antibiotic [1, 32]: −4% | planktonic growth relative to the growth in the absence of both extract and antibiotic [1, 33]: −4% | planktonic growth relative to the growth in the absence of both extract and antibiotic [1, 34]: −5% | planktonic growth relative to the growth in the absence of both extract and antibiotic [1, 35]: −1% | planktonic growth relative to the growth in the absence of both extract and antibiotic [2, 3]: 153% | planktonic growth relative to the growth in the absence of both extract and antibiotic [2, 4]: 132% | planktonic growth relative to the growth in the absence of both extract and antibiotic [2, 5]: 131% | planktonic growth relative to the growth in the absence of both extract and antibiotic [2, 6]: 132% | planktonic growth relative to the growth in the absence of both extract and antibiotic [2, 7]: 116% | planktonic growth relative to the growth in the absence of both extract and antibiotic [2, 8]: 150% | planktonic growth relative to the growth in the absence of both extract and antibiotic [2, 9]: 113% | planktonic growth relative to the growth in the absence of both extract and antibiotic [2, 10]: 112% | planktonic growth relative to the growth in the absence of both extract and antibiotic [2, 11]: 106% | planktonic growth relative to the growth in the absence of both extract and antibiotic [2, 12]: −1% | planktonic growth relative to the growth in the absence of both extract and antibiotic [2, 13]: 0% | planktonic growth relative to the growth in the absence of both extract and antibiotic [2, 14]: 108% | planktonic growth relative to the growth in the absence of both extract and antibiotic [2, 15]: 83% | planktonic growth relative to the growth in the absence of both extract and antibiotic [2, 16]: 82% | planktonic growth relative to the growth in the absence of both extract and antibiotic [2, 17]: 82% | planktonic growth relative to the growth in the absence of both extract and antibiotic [2, 18]: 74% | planktonic growth relative to the growth in the absence of both extract and antibiotic [2, 19]: 83% | planktonic growth relative to the growth in the absence of both extract and antibiotic [2, 20]: 75% | planktonic growth relative to the growth in the absence of both extract and antibiotic [2, 21]: 83% | planktonic growth relative to the growth in the absence of both extract and antibiotic [2, 22]: 0% | planktonic growth relative to the growth in the absence of both extract and antibiotic [2, 23]: 0% | planktonic growth relative to the growth in the absence of both extract and antibiotic [2, 24]: 0% | planktonic growth relative to the growth in the absence of both extract and antibiotic [2, 25]: 44% | planktonic growth relative to the growth in the absence of both extract and antibiotic [2, 26]: 63% | planktonic growth relative to the growth in the absence of both extract and antibiotic [2, 27]: 70% | planktonic growth relative to the growth in the absence of both extract and antibiotic [2, 28]: 69% | planktonic growth relative to the growth in the absence of both extract and antibiotic [2, 29]: 70% | planktonic growth relative to the growth in the absence of both extract and antibiotic [2, 30]: 62% | planktonic growth relative to the growth in the absence of both extract and antibiotic [2, 31]: 62% | planktonic growth relative to the growth in the absence of both extract and antibiotic [2, 32]: 61% | planktonic growth relative to the growth in the absence of both extract and antibiotic [2, 33]: −2% | planktonic growth relative to the growth in the absence of both extract and antibiotic [2, 34]: −3% | planktonic growth relative to the growth in the absence of both extract and antibiotic [2, 35]: −2%
